Experimental data from patent US10716783B2, “Prolylhydroxylase/ATF4 inhibitors and methods of use for treating neural cell injury or death and conditions resulting therefrom” (CORNELL UNIVERSITY, priority 2013, dated 2020).
Read-outs that look alike come from different tables or passages of the source.

How the values were obtained:
primary cortical neurons = assay: Hemin-induced toxicity in primary cortical neurons (MTT, LIVE/DEAD); type: cell-based; conditions: for EC50: primary cortical neurons, MTT assay, read-out: EC50 for abrogating hemin toxicity
From the text: (§1) FIGS. 1A-1L: Structurally diverse HIF PHD inhibitors stabilize HIF-1 and abrogate toxicity induced by hemin, a byproduct of blood breakdown, in cortical neurons hippocampal neuroblasts and striatal neuroblasts (not shown).
(§2) Secondary injury from ICH has been attributed to hemin, a breakdown product of hemoglobin (from lysed red blood cells). To investigate the mechanisms of hemin toxicity to neurons in vitro, this experiment exposed primary cortical neurons, immortalized hippocampal neuroblasts (HT22 cells), and immortalized striatal neuroblasts (Q7 cells) to hemin for 24 hours. As expected, a dose dependent loss in viability as measured by MTT reduction or LIVE/DEAD assay in all three cell types was observed. […] To examine whether iron-dependent HIF PHD enzymes can be modulated to protect neurons from hemin-induced toxicity, this experiment examined structurally diverse inhibitors of the HIF PHDs: desferoxamine, cyclopirox, and dihydroxybenzoic acid. […] To test this notion further using a chemical biological approach, the protective effects of cyclopirox, a HIF PHD inhibitor, and a cyclopirox analog with no PHD inhibitory activity but with similar metal binding affinity to cyclopirox were compared. As expected, only the cyclopirox analog with PHD inhibitory activity was neuroprotective.

[1] = test system: immortalized striatal neuroblasts (Q7 cells); assay: Hemin-induced toxicity in striatal neuroblasts (MTT); type: cell-based; conditions: MTT assay, read-out: EC50 for abrogating hemin toxicity
From the text: as §1, §2

HIF PHDs [2] = assay: ODD-luciferase reporter mice, in vivo bioluminescence imaging and tissue lysates; conditions: in vivo bioluminescence imaging; intraperitoneal; adaptoquin 30 mg/kg
From the text: FIGS. 3A-3G. Validation of adaptoquin as a novel HIF PHD inhibitor. […] Under steady state conditions, activity of HIF PHD2 with its co-substrate 2-oxoglutarate involves two peaks that represent non-hydroxylated and hydroxylated peptide. The hydroxylated peptide disappears in the presence of HIF PHD2 inhibition by adaptoquin. […] The reporter contains the ODD domain of HIF-1 which confers HIF PHD regulated stability on it. It is expressed in all cells of the body, but is destabilized in the absence of HIF PHD inhibition and stabilized in its presence. Quantitative measurements confirm stability of the ODD-luc in brain, kidney and liver (FIGS. 3D and 3E.).
To identify HIF PHD inhibitors suitable for testing in ICH, the experiment first sought to identify which of the known HIF PHD inhibitors could penetrate the blood brain barrier to inhibit HIF PHD activity in the CNS. To monitor HIF PHD activity dynamically, the experiment utilized mice that had previously been engineered to ubiquitously express the oxygen degradation domain (ODD) of HIF-1α fused to firefly luciferase. The ODD domain contains proline 402 and 564, which are hydroxylated by the HIF PHDs to degrade HIF-1 or the ODD-luciferase. Accordingly, these mice have been used previously to track HIF PHD activity in diverse organs in vivo using in vivo bioluminescence imaging.
To verify that the changes in light in the brain reflect parenchymal changes in ODD-luciferase levels rather than increases in changes in skin or dural ODD-luciferase, ODD-luciferase activity was measured normalized to total protein in lysates from distinct brain regions using a luminometer.

[3] = test system: immortalized hippocampal neuroblasts (HT22 cells); assay: Hemin-induced toxicity in hippocampal neuroblasts (MTT); type: cell-based; conditions: MTT assay, read-out: EC50 for abrogating hemin toxicity
From the text: as §1
as §2, with “neuroprotective. […]” for “neuroprotective.”

HIF PHDs [4] = assay: ODD-luciferase cell based assay
HIF-1 protein = HIF-1 protein stabilisation in primary neurons (Western blot); type: cell-based; conditions: primary neurons, Western blot
From the text: FIGS. 1A-1L: Structurally diverse HIF PHD inhibitors stabilize HIF-1 and abrogate toxicity induced by hemin, a byproduct of blood breakdown, in cortical neurons hippocampal neuroblasts and striatal neuroblasts (not shown). […] FIGS. 6A-6I. […] Expression of ATF4 was forced into primary neurons, which induces death of these neurons by MTT assay (FIG. 6D) or LIVE/DEAD staining, Green is live, Red is dead (FIG. 6E).

Structure (SMILES) | EC50 (primary cortical neurons) [µM] | EC50 [1] [µM] | ODD-luciferase activity in brain (HIF PHDs [2]) | EC50 [3] [µM] | ODD-luciferase activity in cell based assays (HIF PHDs [4]) | Stabilisation of HIF-1 protein (HIF-1 protein) | EC50 (primary cortical neurons; Primary cortical neuron) [µM] | Prevention of hemin-induced death (primary cortical neurons; neurons, FIGS. 1M, 1O-1R)
CC(=O)N(O)CCCCCNC(=O)CCC(=O)N(O)CCCCCNC(=O)CCC(=O)N(O)CCCCCN [Desferoxamine] | 34.1 | 26.7 | failed to increase ODD-luciferase activity in the brain | 50.8 | induced the ODD-luciferase activity in cell based assays | stabilize HIF-1 protein |  | 
Cc1cc(C2CCCCC2)n(O)c(=O)c1 [cyclopirox] |  |  | failed to increase ODD-luciferase activity in the brain |  | induced the ODD-luciferase activity in cell based assays | stabilize HIF-1 protein | 1.4 | prevents hemin-induced death
